Biological target: T1, delta-5-desaturase (Rattus norvegicus, UniProt Q920R3)
T1 construct: the microsomal fraction of a rat river (10 μl), which had been diluted to 3 mg/ml; from tissue; host or cells: rat liver microsomal fraction
Assay: Inhibitory activity on delta-5-desaturase (rat liver microsomal fraction, 14C-eicosatrienoic acid, TLC)
Type: biochemical
Details: test compound at 10 μM, room temperature, 120 minutes
In short: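 Rat liver microsomes (3 mg/ml before addition) incubated with test compound at 10 μM, NADH, ATP, CoA and 14C-eicosatrienoic acid in phosphate buffer pH 7.4 with BSA and glutathione, 120 min at room temperature. Lipids saponified, extracted, separated by reverse-phase TLC and imaged; % inhibition reported.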

T1 sequence (Q920R3 whole entry): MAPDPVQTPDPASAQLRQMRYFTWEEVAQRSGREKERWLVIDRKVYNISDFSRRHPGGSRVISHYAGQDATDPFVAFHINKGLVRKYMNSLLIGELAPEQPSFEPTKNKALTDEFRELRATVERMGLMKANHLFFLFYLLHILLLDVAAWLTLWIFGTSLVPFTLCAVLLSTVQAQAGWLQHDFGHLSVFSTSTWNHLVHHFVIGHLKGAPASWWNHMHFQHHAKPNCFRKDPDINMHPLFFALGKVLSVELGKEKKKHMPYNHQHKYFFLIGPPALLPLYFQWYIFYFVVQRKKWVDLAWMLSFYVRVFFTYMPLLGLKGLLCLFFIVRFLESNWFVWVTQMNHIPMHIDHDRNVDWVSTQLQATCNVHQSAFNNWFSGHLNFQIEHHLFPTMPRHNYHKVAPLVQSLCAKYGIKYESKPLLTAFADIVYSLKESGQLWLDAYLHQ

Row | inhibition at 10 µM [%] | Compound
1 | 102 | O=C1Cc2c(nc(SCC3CC3)n(-c3ccc(OCC(F)(F)C(F)(F)F)cc3)c2=O)N1 [Example 323, 2-[(Cyclopropylmethyl)sulfanyl]-3-[4-(2,2,3,3,3-pentafluoropropoxy)phenyl]-5,7-dihydro-3H-pyrrolo[2,3-d]pyrimidine-4,6-dione]
2 | 101 | CC(C)Sc1nc2c(c(=O)n1-c1ccc(OCC(F)(F)C(F)(F)F)cc1)CC(=O)N2 [Example 324, 2-[(1-Methylethyl)sulfanyl]-3-[4-(2,2,3,3,3-pentafluoropropoxy)phenyl]-5,7-dihydro-3H-pyrrolo[2,3-d]pyrimidine-4,6-dione]
3 | 105 | COCCSc1nc2c(c(=O)n1-c1ccc(OCC(F)(F)F)cc1)CC(=O)N2 [Example 325, 2-[(2-Methoxyethyl)sulfanyl]-3-[4-(2,2,2-trifluoroethoxy)phenyl]-5,7-dihydro-3H-pyrrolo[2,3-d]pyrimidine-4,6-dione]
4 | 97 | N#CCCNC(=O)CSc1nc2c(c(=O)n1-c1ccc(OCC(F)(F)F)cc1)CC(=O)N2 [Example 328, N-(2-cyanoethyl)-2-({4,6-dioxo-3-[4-(2,2,2-trifluoroethoxy)phenyl]-4,5,6,7-tetrahydro-3H-pyrrolo[2,3-d]pyrimidin-2-yl}sulfanyl)acetamide]
5 | 101 | O=C1Cc2c(nc(SCCC3CC3)n(-c3ccc(OCC(F)(F)F)cc3)c2=O)N1 [Example 329, 2-[(2-Cyclopropylethyl)sulfanyl]-3-[4-(2,2,2-trifluoroethoxy)phenyl]-5,7-dihydro-3H-pyrrolo[2,3-d]pyrimidine-4,6-dione]
6 | 101 | O=C1Cc2c(nc(Sc3ccc(F)cc3)n(-c3ccc(OCC(F)(F)F)cc3)c2=O)N1 [Example 336, 2-[(4-Fluorophenyl)sulfanyl]-3-[4-(2,2,2-trifluoroethoxy)phenyl]-5,7-dihydro-3H-pyrrolo[2,3-d]pyrimidine-4,6-dione]
7 | 100 | O=C1Cc2c(nc(OC(CF)CF)n(-c3ccc(OCC(F)(F)F)cc3)c2=O)N1 [Example 338, 2-[2-Fluoro-1-(fluoromethyl)ethoxy]-3-[4-(2,2,2-trifluoroethoxy)phenyl]-5,7-dihydro-3H-pyrrolo[2,3-d]pyrimidine-4,6-dione]
8 | 100 | N#CC1(CSc2nc3c(c(=O)n2-c2ccc(OCC(F)(F)F)cc2)CC(=O)N3)CC1 [Example 339, 1-[({4,6-Dioxo-3-[4-(2,2,2-trifluoroethoxy)phenyl]-4,5,6,7-tetrahydro-3H-pyrrolo[2,3-d]pyrimidin-2-yl}sulfanyl)methyl]cyclopropanecarbonitrile]
9 | 101 | CCC(CC)Sc1nc2c(c(=O)n1-c1ccc(OCC(F)(F)F)cc1)CC(=O)N2 [Example 340, 2-[(1-Ethylpropyl)sulfanyl]-3-[4-(2,2,2-trifluoroethoxy)phenyl]-5,7-dihydro-3H-pyrrolo[2,3-d]pyrimidine-4,6-dione]
10 | 99 | O=C1Cc2c(nc(OCCC(F)(F)F)n(-c3ccc(OCC(F)(F)F)cc3)c2=O)N1 [Example 341, 3-[4-(2,2,2-Trifluoroethoxy)phenyl]-2-(3,3,3-trifluoropropoxy)-5,7-dihydro-3H-pyrrolo[2,3-d]pyrimidine-4,6-dione]

More lines, now with the values behind:

Row | Compound | inhibition at 10 µM [%]
11 | O=C1Cc2c(nc(SC3CC3)n(-c3ccc(OCC(F)(F)F)cc3)c2=O)N1 [Example 291, 2-(Cyclopropylsulfanyl)-3-[4-(2,2,2-trifluoroethoxy)phenyl]-5,7-dihydro-3H-pyrrolo[2,3-d]pyrimidine-4,6-dione] | 99
12 | O=C1Cc2c(nc(SCC3CCC3)n(-c3ccc(OCC(F)(F)F)cc3)c2=O)N1 [Example 296, 2-[(Cyclobutylmethyl)sulfanyl]-3-[4-(2,2,2-trifluoroethoxy)phenyl]-5,7-dihydro-3H-pyrrolo[2,3-d]pyrimidine-4,6-dione] | 101
13 | O=C1Cc2c(nc(SCC(F)(F)F)n(-c3ccc(OCC(F)(F)F)cc3)c2=O)N1 [Example 298, 3-[4-(2,2,2-Trifluoroethoxy)phenyl]-2-[(2,2,2-trifluoroethyl)sulfanyl]-5,7-dihydro-3H-pyrrolo[2,3-d]pyrimidine-4,6-dione] | 101
14 | COCCOCCCSc1nc2c(c(=O)n1-c1ccc(OCC(F)(F)F)cc1)CC(=O)N2 [Example 299, 2-{[3-(2-Methoxyethoxy)propyl]sulfanyl}-3-[4-(2,2,2-trifluoroethoxy)phenyl]-5,7-dihydro-3H-pyrrolo[2,3-d]pyrimidine-4,6-dione] | 100
15 | CCSc1nc2c(c(=O)n1-c1ccc(OCC3CC3)cc1)CC(=O)N2 [Example 300, 3-[4-(Cyclopropylmethoxy)phenyl]-2-(ethylsulfanyl)-5,7-dihydro-3H-pyrrolo[2,3-d]pyrimidine-4,6-dione] | 101
16 | CS(=O)(=O)CCCSc1nc2c(c(=O)n1-c1ccc(OCC3CC3)cc1)CC(=O)N2 [Example 301, 3-[4-(Cyclopropylmethoxy)phenyl]-2-{[3-(methylsulfonyl)propyl]sulfanyl}-5,7-dihydro-3H-pyrrolo[2,3-d]pyrimidine-4,6-dione] | 99
17 | CCOCCCSc1nc2c(c(=O)n1-c1ccc(OCC(F)(F)F)cc1)CC(=O)N2 [Example 302, 2-[(3-Ethoxypropyl)sulfanyl]-3-[4-(2,2,2-trifluoroethoxy)phenyl]-5,7-dihydro-3H-pyrrolo[2,3-d]pyrimidine-4,6-dione] | 94
18 | CSc1nc2c(c(=O)n1-c1ccc(OCC(F)(F)C(F)(F)F)cc1)CC(=O)N2 [Example 303, 2-(Methylsulfanyl)-3-[4-(2,2,3,3,3-pentafluoropropoxy)phenyl]-5,7-dihydro-3H-pyrrolo[2,3-d]pyrimidine-4,6-dione] | 98
19 | O=C1Cc2c(nc(OCC(F)(F)F)n(-c3ccc(OCC(F)(F)C(F)(F)F)cc3)c2=O)N1 [Example 306, 3-[4-(2,2,3,3,3-Pentafluoropropoxy)phenyl]-2-(2,2,2-trifluoroethoxy)-5,7-dihydro-3H-pyrrolo[2,3-d]pyrimidine-4,6-dione] | 99
20 | CCSc1nc2c(c(=O)n1-c1ccc(OCC(F)(F)F)c(F)c1)CC(=O)N2 [Example 307, 2-(Ethylsulfanyl)-3-[3-fluoro-4-(2,2,2-trifluoroethoxy)phenyl]-5,7-dihydro-3H-pyrrolo[2,3-d]pyrimidine-4,6-dione] | 99
21 | O=C1Cc2c(nc(OCC(F)(F)F)n(-c3ccc(OCC(F)(F)F)c(F)c3)c2=O)N1 [Example 309, 3-[3-Fluoro-4-(2,2,2-trifluoroethoxy)phenyl]-2-(2,2,2-trifluoroethoxy)-5,7-dihydro-3H-pyrrolo[2,3-d]pyrimidine-4,6-dione] | 98
22 | CC(C)Oc1nc2c(c(=O)n1-c1ccc(OCC(F)(F)C(F)(F)F)cc1)CC(=O)N2 [Example 310, 2-(1-Methylethoxy)-3-[4-(2,2,3,3,3-pentafluoropropoxy)phenyl]-5,7-dihydro-3H-pyrrolo[2,3-d]pyrimidine-4,6-dione] | 99
23 | O=C1Cc2c(nc(Oc3ccc(F)cc3)n(-c3ccc(OCC(F)(F)C(F)(F)F)cc3)c2=O)N1 [Example 311, 2-(4-Fluorophenoxy)-3-[4-(2,2,3,3,3-pentafluoropropoxy)phenyl]-5,7-dihydro-3H-pyrrolo[2,3-d]pyrimidine-4,6-dione] | 98
24 | N#CCSc1nc2c(c(=O)n1-c1ccc(OCC(F)(F)F)cc1)CC(=O)N2 [Example 312, ({4,6-Dioxo-3-[4-(2,2,2-trifluoroethoxy)phenyl]-4,5,6,7-tetrahydro-3H-pyrrolo[2,3-d]pyrimidin-2-yl}sulfanyl)acetonitrile] | 97
25 | CC(C)CSc1nc2c(c(=O)n1-c1ccc(OCC(F)(F)F)cc1)CC(=O)N2 [Example 313, 2-[(2-Methylpropyl)sulfanyl]-3-[4-(2,2,2-trifluoroethoxy)phenyl]-5,7-dihydro-3H-pyrrolo[2,3-d]pyrimidine-4,6-dione] | 102
26 | CC(C)(O)CSc1nc2c(c(=O)n1-c1ccc(OCC(F)(F)F)cc1)CC(=O)N2 [Example 315, 2-[(2-Hydroxy-2-methylpropyl)sulfanyl]-3-[4-(2,2,2-trifluoroethoxy)phenyl]-5,7-dihydro-3H-pyrrolo[2,3-d]pyrimidine-4,6-dione] | 99
27 | CC(C)Oc1nc2[nH]ccc2c(=O)n1-c1ccc(OCC(F)(F)F)c(F)c1 [Example 316, 3-[3-Fluoro-4-(2,2,2-trifluoroethoxy)phenyl]-2-(1-methylethoxy)-3,7-dihydro-4H-pyrrolo[2,3-d]pyrimidin-4-one] | 103
28 | CC(C)COc1nc2c(c(=O)n1-c1ccc(OCC(F)(F)F)cc1)CC(=O)N2 [Example 318, 2-(2-Methylpropoxy)-3-[4-(2,2,2-trifluoroethoxy)phenyl]-5,7-dihydro-3H-pyrrolo[2,3-d]pyrimidine-4,6-dione] | 103
29 | O=C1Cc2c(nc(OCCC3CC3)n(-c3ccc(OCC(F)(F)F)cc3)c2=O)N1 [Example 319, 2-(2-Cyclopropylethoxy)-3-[4-(2,2,2-trifluoroethoxy)phenyl]-5,7-dihydro-3H-pyrrolo[2,3-d]pyrimidine-4,6-dione] | 104
30 | O=C1Cc2c(nc(SCC3CC3)n(-c3ccc(OCC(F)(F)F)c(F)c3)c2=O)N1 [Example 322, 2-[(Cyclopropylmethyl)sulfanyl]-3-[3-fluoro-4-(2,2,2-trifluoroethoxy)phenyl]-5,7-dihydro-3H-pyrrolo[2,3-d]pyrimidine-4,6-dione] | 101

Same assay, conditions: test compound at 10 μM, room temperature, 120 minutes, 10 µM

Row | Inhibitory activity at 10 μM (%) | Compound
31 | 101 | O=c1c2cc[nH]c2nc(OCC2CC2)n1-c1ccc(OCC(F)(F)F)cc1 [Example 289, 2-(Cyclopropylmethoxy)-3-[4-(2,2,2-trifluoroethoxy)phenyl]-3,7-dihydro-4H-pyrrolo[2,3-d]pyrimidin-4-one]
